Measurements: patent publication US4778824A, “Method for suppressing a transplantation immunity and treating an allergic disease and an autoimmune disease” (Zaidan Hojin Biseibutsu Kagaku Kenkyu Kai, priority 1984, dated 1988)
Where a name gives a salt, the structure may show the parent alone.

Columns and labels:
IgM antibody production = assay: Inhibition of IgM antibody production against sheep red blood cells (plaque-forming cells); type: in vivo, CDF 1 mice; settings: 3 days; for IgM plaque-forming cell count: ± S.D.
Description: Additionally, in accordance with the method of Jerne et al. (Jerne et al., Cell-bound Antibodies, pp. 109-122, 1963), the inventors examined the inhibitory action of spergualin on humoral immunity which is primarily the domain of the B-lymphocytes. The test procedure consisted of counting the number of spleen cells that were extracted from mice sensitized by antigenic sheep red blood cells and which formed immunoglobulin M (IgM) plaques. […] As summarized in Experiments 4 and 5 spergualin inhibited the production of IgG and IgE.
CDF 1 mice (6-10 wk old, female) were immunized by intravenous injection of 1×10^8 sheep red blood cells. The mice were intraperitoneally administered varying doses (see Table 3 below) of the test compound for a period of 3 days starting from the day following the intravenous injection. Four days later, spleen cells were isolated from the mice and the number of IgM plaque-forming cells was counted by a known method (Yata et al.; Gan to Kagaku Ryoho (Cancer and Chemotherapy), vol. 2, pp. 903-908, 1975). The percentage inhibition of IgM antibody production was calculated by (1-B/A)×100 wherein A is the count for a control group (given physiological saline) and B, for the treated group.

IgE antibody production = assay: Inhibition of IgE antibody production against egg albumin (passive cutaneous anaphylaxis titer); type: in vivo, BALB/c mice; settings: 50 mg/kg/day i.p., ± S.D.
Experimental: BALB/c mice (7 wk old, female) were challenged by intraperitoneal administration of 10 μg of egg albumin together with 4 mg of aluminum hydroxide gel. Thereafter, the mice were intraperitoneally administered 50 mg/kg/day of the test compound in accordance with the schedules shown in Table 5. After the challenge, blood was drawn from the fundus of each mouse at 10-day intervals for serum collection. The antibody titer of IgE in the serum was determined by passive cutaneous anaphylaxis as follows. Fischer 344 rats (female, 10 wk old) were injected with 0.05 ml of a diluted serum into the dorsal skin. Four hours later, 1 mg of egg albumin and 0.5 ml of 1% Evans blue were injected into the tail vein, and the final serum dilution that produced a blue spot of a diameter of at least 5 mm 30 minutes after the intravenous injection was used as a measure of the antibody titer.

[1] = system: experimental aplastic anemia; assay: Effect on experimental aplastic anemia in mice; type: in vivo, C3H/HeN mice; settings: 10 days; for MST (mean survival time): ± S.D.
Description: Female C3H/HeN mice (Mls^c) of 10 week-old and female CBA mice (Mls^d) of 10 week-old were used. A group consisted of 10 mice. CBA lymph node cells (10^7) were i.v. into C3H/HeN mice after being subjected to 600 rads of whole-body X-irradiation, spergualin was given i.p. once a day for 10 days. The data is indicated as the mean survival time ±S.D.

[2] = Exp. 1, 3.13 mg/kg i.p. once a day
[3] = Exp. 2, 6.25 mg/kg i.p. once a day
[4] = Exp. 2, 25.0 mg/kg i.p. once a day
[5] = Exp. 2, 50.0 mg/kg i.p. once a day

N=C(N)NCCCCC(O)CC(=O)NC(O)C(=O)NCCCCNCCCN (centres unmarked) [spergualin (trihydrochloride)]
IgM plaque-forming cell count (IgM antibody production; 1 mg/kg/day i.p.): 1,304 ± 188 cells/10^6 spleen cells × 100
IgM plaque-forming cell count (IgM antibody production; 5 mg/kg/day i.p., significant (P < 0.001)): 632 ± 87 cells/10^6 spleen cells × 100
IgM plaque-forming cell count (IgM antibody production; 10 mg/kg/day i.p., significant (P < 0.001)): 392 ± 87 cells/10^6 spleen cells × 100
IgM plaque-forming cell count (IgM antibody production; 25 mg/kg/day i.p., significant (P < 0.001)): 149 ± 53 cells/10^6 spleen cells × 100
IgM plaque-forming cell count (IgM antibody production; 50 mg/kg/day i.p., significant (P < 0.001)): 64 ± 24 cells/10^6 spleen cells × 100
inhibition at 1 mg/kg/day (IgM antibody production; Mus musculus, Erythrocyte, ip, 72 h, IgM, 1 mg/kg/day i.p.): 10.3%
inhibition at 5 mg/kg/day (IgM antibody production; Mus musculus, Erythrocyte, ip, 72 h, IgM, 5 mg/kg/day i.p.): 56.5%
inhibition at 10 mg/kg/day (IgM antibody production; Mus musculus, Erythrocyte, ip, 72 h, IgM, 10 mg/kg/day i.p.): 73%
inhibition at 25 mg/kg/day (IgM antibody production; Mus musculus, Erythrocyte, ip, 72 h, IgM, 25 mg/kg/day i.p.): 89.7%
inhibition at 50 mg/kg/day (IgM antibody production; Mus musculus, Erythrocyte, ip, 72 h, IgM, 50 mg/kg/day i.p.): 95.5%
IgE antibody titer, 10 days (IgE antibody production; days 1-8 after challenge): 13±33 dilutions
IgE antibody titer, 20 days (IgE antibody production; days 1-8 after challenge): 60±31 dilutions
IgE antibody titer, 30 days (IgE antibody production; days 1-8 after challenge): 320±0 dilutions
IgE antibody titer, 40 days (IgE antibody production; days 1-8 after challenge): 320±0 dilutions
IgE antibody titer, 10 days (IgE antibody production; days 1-16 after challenge): 0±0 dilutions
IgE antibody titer, 20 days (IgE antibody production; days 1-16 after challenge): 8±9 dilutions
IgE antibody titer, 30 days (IgE antibody production; days 1-16 after challenge): 80±120 dilutions
IgE antibody titer, 40 days (IgE antibody production; days 1-16 after challenge): 200±131 dilutions
IgE antibody titer, 10 days (IgE antibody production; days 9-16 after challenge): 120±98 dilutions
IgE antibody titer, 20 days (IgE antibody production; days 9-16 after challenge): 110±106 dilutions
IgE antibody titer, 30 days (IgE antibody production; days 9-16 after challenge): 320±0 dilutions
IgE antibody titer, 40 days (IgE antibody production; days 9-16 after challenge): 480±392 dilutions
30-day survivors, Survivors/Total [1, 2]: 2/10
MST (mean survival time) [1, 2]: 16.3 ± 8.1 days
30-day survivors, Survivors/Total ([1]; Exp. 1, 6.25 mg/kg i.p. once a day): 6/10
MST (mean survival time) ([1]; Exp. 1, 6.25 mg/kg i.p. once a day, P < 0.05): 22.6 ± 9.7 days
30-day survivors, Survivors/Total ([1]; Exp. 1, 12.5 mg/kg i.p. once a day): 10/10
MST (mean survival time) ([1]; Exp. 1, 12.5 mg/kg i.p. once a day, P < 0.01): 30.0 ± 0.0 days
30-day survivors, Survivors/Total ([1]; Exp. 1, 25.0 mg/kg i.p. once a day): 6/10
MST (mean survival time) ([1]; Exp. 1, 25.0 mg/kg i.p. once a day, P < 0.05): 23.6 ± 8.6 days
30-day survivors, Survivors/Total [1, 3]: 3/10
MST (mean survival time) [1, 3]: 20.2 ± 8.4 days
30-day survivors, Survivors/Total ([1]; Exp. 2, 12.5 mg/kg i.p. once a day): 6/10
MST (mean survival time) ([1]; Exp. 2, 12.5 mg/kg i.p. once a day, P < 0.05): 23.0 ± 9.4 days
30-day survivors, Survivors/Total [1, 4]: 4/10
MST (mean survival time) [1, 4]: 20.7 ± 8.5 days
30-day survivors, Survivors/Total [1, 5]: 0/10
MST (mean survival time) [1, 5]: 12.6 ± 3.9 days
